Tested on: upper airway collapsibility
Experiment: pig model of obstructive sleep apnea (OSA): collapse of the upper respiratory tract induced by negative pressure in anaesthetized, spontaneously breathing pigs
Format: in vivo, German Landrace pigs
Details: for effect on upper airway collapsibility: all negative pressures of −50, −100 and −150 cm H2O
Excerpt: The therapeutic potential of the combination of an α2-Adrenoceptor subtype C (alpha-2C) antagonists with a TASK1/3 channel blocker according to the present invention in sleep apnea has been assessed preclinically in a pig model of obstructive sleep apnea (OSA).
Using negative pressure. it is possible to induce collapse and thus obstruction of the upper respiratory tract in anaesthetized, spontaneously breathing pigs (Wirth K. J. et al., Sleep 36(5) (2013) pp. 699-708).
German Landrace pigs are used for the model. The pigs are anaesthetized and tracheotomized. Two tracheal cannulas are inserted into the trachea, one into the rostral part and the other into the caudal part of the trachea. Using a connection piece. the rostral cannula is connected to a tube to the negative pressure device and to the distal tracheal cannula. The distal tracheal cannula is additionally connected to a tube with an open end to atmosphere via a connection piece that served for free tracheal breathing, circumventing the upper airway. By appropriate opening and clamping of those tubes breathing can be switched from nasal breathing to breathing through the caudal tracheal cannula, circumventing the upper airway. and the (isolated) upper airway can be connected to the negative pressure device, causing airflow in the inspiratory direction.
At certain points in time. the collapsibility of the upper respiratory tract is tested by having the pig breathe via the caudal cannula and applying negative pressures of −50, −100 and −150 cm water head (cm H2O) to the upper respiratory tract. This causes the upper respiratory tract to collapse, which manifests itself in an interruption of the airflow and a pressure drop in the tube system. This test is conducted prior to the administration of the test substance and at certain intervals after the administration of the test substance. An appropriately effective test substance can prevent this collapse of the respiratory tract in the inspiratory phase.

[1] = time 60 min after intranasal administration of 0.3 μg, TASK1/3 blocker alone
[2] = time 0 min (time point of i.v. bolus/start of infusion of alpha-2C antagonist)
[3] = time 10 min after i.v. bolus and start of i.v. infusion 0.13 μg/kg/h of alpha-2C antagonist, before nasal TASK1/3 blocker
[4] = time 30 min after i.v. bolus and start of i.v. infusion 0.13 μg/kg/h of alpha-2C antagonist, before nasal TASK1/3 blocker
[5] = time 60 min after i.v. bolus and start of i.v. infusion 0.13 μg/kg/h of alpha-2C antagonist, before nasal TASK1/3 blocker
[6] = time 90 min after i.v. bolus and start of i.v. infusion 0.13 μg/kg/h of alpha-2C antagonist, before nasal TASK1/3 blocker
[7] = time 120 min after i.v. bolus and start of i.v. infusion 0.13 μg/kg/h of alpha-2C antagonist, before nasal TASK1/3 blocker
[8] = time 150 min after i.v. bolus and start of i.v. infusion 0.13 μg/kg/h of alpha-2C antagonist, before nasal TASK1/3 blocker

COc1cccc(C(=O)N2CCN(Cc3c(-c4ccc(Cl)cc4)nc4ccccn34)CC2)n1 [(4-{[2-(4-Chlorophenyl)imidazo[1,2-a]pyridin-3-yl]methyl}piperazin-1-yl)(6-methoxypyridin-2-yl)methanone]
0%: Percent pigs without collaps −50 cm H2O [1] | Percent pigs without collaps −100 cm H2O [1] | Percent pigs without collaps −150 cm H2O [1]
non effective dose: effectiveness of the dose on upper airway collapsibility (TASK1/TASK3 channel blocker alone, 0.3 μg)

COCc1cccnc1N1CCN(C[C@H]2COc3ccccc3O2)CC1 [(S)-1-((2,3-dihydrobenzo[b][1,4]dioxin-2-yl)methyl)-4-(3-(methoxymethyl)pyridin-2-yl)piperazine]
100%: Percent pigs without collaps −50 cm H2O [4] | Percent pigs without collaps −100 cm H2O [4] | Percent pigs without collaps −150 cm H2O [4] | Percent pigs without collaps −50 cm H2O [5] | Percent pigs without collaps −100 cm H2O [5]
upper airway collapsibility was induced: effect on upper airway collapsibility (i.v. bolus 0.3μg/kg + i.v. infusion 0.13 μg/kg/h, time point 120 min after bolus and start of infusion)
0%: Percent pigs without collaps −50 cm H2O [2] | Percent pigs without collaps −100 cm H2O [2] | Percent pigs without collaps −150 cm H2O [2] | Percent pigs without collaps −50 cm H2O [3] | Percent pigs without collaps −100 cm H2O [3] | Percent pigs without collaps −150 cm H2O [3] | Percent pigs without collaps −100 cm H2O [6] | Percent pigs without collaps −150 cm H2O [6] | Percent pigs without collaps −50 cm H2O [7] | Percent pigs without collaps −100 cm H2O [7] | Percent pigs without collaps −150 cm H2O [7] | Percent pigs without collaps −50 cm H2O [8] | Percent pigs without collaps −100 cm H2O [8] | Percent pigs without collaps −150 cm H2O [8]
inhibited upper airway collapsibility: effect on upper airway collapsibility (i.v. bolus 0.3μg/kg + i.v. infusion 0.13 μg/kg/h for five hours, only at time point 30 min after bolus and start of infusion)
50%: Percent pigs without collaps −150 cm H2O [5] | Percent pigs without collaps −50 cm H2O [6]
non effective dose: effectiveness of the dose on upper airway collapsibility (alpha-2C antagonist alone, i.v. bolus 0.3μg/kg + i.v. infusion 0.13 μg/kg/h)

Source: US20220218700A1, “COMBINATION OF AN ?2-ADRENOCEPTOR SUBTYPE C (ALPHA-2C) ANTAGONISTS WITH A TASK1/3 CHANNEL BLOCKER FOR THE TREATMENT OF SLEEP APNEA” (Bayer Aktiengesellschaft, priority 2019, published 2022)
